#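 Growth conditions: 96-well plates. Treatment: test compound, 48 hours, 5 concentrations. Analysis: linear interpolation between bracketing concentrations; unreached endpoints set to highest concentration. At the TGI there is no net growth.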
# Assays:
# Test in all cases: growth of human tumour cells (NCI), 48 h
# OVCAR-8 ovarian = test system: OVCAR-8 ovarian
# OVCAR-5 ovarian = test system: OVCAR-5 ovarian
# MOLT-4 leukemia = test system: MOLT-4 leukemia
# A549 NSCLC = test system: A549 NSCLC
# A498 renal = test system: A498 renal
# U251 CNS = test system: U251 CNS
# HOP-62 NSCLC = test system: HOP-62 NSCLC
# DU-145 prostate = test system: DU-145 prostate
# NCI/ADR-RES ovarian = test system: NCI/ADR-RES ovarian
# MALME-3M melanoma = test system: MALME-3M melanoma
# SW-620 colon = test system: SW-620 colon
# OVCAR-3 ovarian = test system: OVCAR-3 ovarian
# K-562 leukemia = test system: K-562 leukemia
# SK-MEL-5 melanoma = test system: SK-MEL-5 melanoma
# SF-539 CNS = test system: SF-539 CNS
# PC-3 prostate = test system: PC-3 prostate
# HS 578T breast = test system: HS 578T breast
# LOX IMVI melanoma = test system: LOX IMVI melanoma
# MDA-N = test system: MDA-N
# SK-MEL-28 melanoma = test system: SK-MEL-28 melanoma
# HL-60(TB) leukemia = test system: HL-60(TB) leukemia
# NCI-H522 lung = test system: NCI-H522 lung
# SF-268 CNS = test system: SF-268 CNS
# HCT-116 colon = test system: HCT-116 colon
# HCT-15 colon = test system: HCT-15 colon
# M14 melanoma = test system: M14 melanoma
# SNB-75 CNS = test system: SNB-75 CNS
# COLO 205 colon = test system: COLO 205 colon
# NCI-H460 lung = test system: NCI-H460 lung
# SK-OV-3 ovarian = test system: SK-OV-3 ovarian
# NCI-H23 lung = test system: NCI-H23 lung
# T-47D breast = test system: T-47D breast
# UACC-257 melanoma = test system: UACC-257 melanoma
# OVCAR-4 ovarian = test system: OVCAR-4 ovarian
# BT-549 breast = test system: BT-549 breast
# HT29 colon = test system: HT29 colon
# UACC-62 melanoma = test system: UACC-62 melanoma
# UO-31 renal = test system: UO-31 renal
# 786-0 renal = test system: 786-0 renal
# MCF7 breast = test system: MCF7 breast
# CAKI-1 renal = test system: CAKI-1 renal
# ACHN renal = test system: ACHN renal
# IGROV1 ovarian = test system: IGROV1 ovarian
# SN12C renal = test system: SN12C renal
# HCC-2998 colon = test system: HCC-2998 colon
# MDA-MB-435 = test system: MDA-MB-435
# MDA-MB-231 breast = test system: MDA-MB-231 breast
# SNB-19 CNS = test system: SNB-19 CNS
# EKVX NSCLC = test system: EKVX NSCLC
# SK-MEL-2 melanoma = test system: SK-MEL-2 melanoma
# HOP-92 NSCLC = test system: HOP-92 NSCLC
# SR leukemia = test system: SR leukemia
# CCRF-CEM leukemia = test system: CCRF-CEM leukemia
# NCI-H226 lung = test system: NCI-H226 lung
# RXF 393 renal = test system: RXF 393 renal
# KM12 colon = test system: KM12 colon
# SF-295 CNS = test system: SF-295 CNS
# RPMI-8226 leukemia = test system: RPMI-8226 leukemia
# TK-10 renal = test system: TK-10 renal
smiles,measurement,setting,value
O=C1c2ccccc2C(=O)N1CCCC(=O)n1cc(F)c(=O)[nH]c1=O,TGI,OVCAR-8 ovarian,> 100 µM
same,TGI,OVCAR-5 ovarian,> 100 µM
same,TGI,MOLT-4 leukemia,> 100 µM
same,TGI,A549 NSCLC,> 100 µM
same,TGI,A498 renal,> 100 µM
same,TGI,U251 CNS,> 100 µM
same,TGI,HOP-62 NSCLC,> 24.6 µM
same,TGI,DU-145 prostate,> 100 µM
same,TGI,NCI/ADR-RES ovarian,> 100 µM
same,TGI,MALME-3M melanoma,> 100 µM
same,TGI,SW-620 colon,> 100 µM
same,TGI,OVCAR-3 ovarian,> 79 µM
same,TGI,K-562 leukemia,> 100 µM
same,TGI,SK-MEL-5 melanoma,> 100 µM
same,TGI,SF-539 CNS,> 100 µM
same,TGI,PC-3 prostate,> 100 µM
same,TGI,HS 578T breast,> 100 µM
same,TGI,LOX IMVI melanoma,> 100 µM
same,TGI,MDA-N,> 100 µM
same,TGI,SK-MEL-28 melanoma,> 100 µM
same,TGI,HL-60(TB) leukemia,> 100 µM
same,TGI,NCI-H522 lung,> 100 µM
same,TGI,SF-268 CNS,> 100 µM
same,TGI,HCT-116 colon,> 100 µM
same,TGI,HCT-15 colon,> 100 µM
same,TGI,M14 melanoma,> 100 µM
same,TGI,SNB-75 CNS,> 100 µM
same,TGI,COLO 205 colon,> 100 µM
same,TGI,NCI-H460 lung,> 100 µM
same,TGI,SK-OV-3 ovarian,> 100 µM
same,TGI,NCI-H23 lung,> 100 µM
same,TGI,T-47D breast,> 100 µM
same,TGI,UACC-257 melanoma,> 100 µM
same,TGI,OVCAR-4 ovarian,> 100 µM
same,TGI,BT-549 breast,> 100 µM
same,TGI,HT29 colon,> 100 µM
same,TGI,UACC-62 melanoma,> 100 µM
same,TGI,UO-31 renal,> 100 µM
same,TGI,786-0 renal,> 100 µM
same,TGI,MCF7 breast,> 100 µM
same,TGI,CAKI-1 renal,> 100 µM
same,TGI,ACHN renal,> 100 µM
same,TGI,IGROV1 ovarian,> 100 µM
same,TGI,SN12C renal,> 100 µM
same,TGI,HCC-2998 colon,> 100 µM
same,TGI,MDA-MB-435,> 100 µM
same,TGI,MDA-MB-231 breast,> 100 µM
same,TGI,SNB-19 CNS,> 100 µM
same,TGI,EKVX NSCLC,> 100 µM
same,TGI,SK-MEL-2 melanoma,> 100 µM
same,TGI,HOP-92 NSCLC,> 100 µM
same,TGI,SR leukemia,> 100 µM
same,TGI,CCRF-CEM leukemia,> 100 µM
same,TGI,NCI-H226 lung,> 100 µM
same,TGI,RXF 393 renal,> 100 µM
same,TGI,KM12 colon,> 100 µM
same,TGI,SF-295 CNS,> 100 µM
same,TGI,RPMI-8226 leukemia,> 77.5 µM
same,TGI,TK-10 renal,> 100 µM
Cc1noc(C)c1-n1nc2ccc3nonc3c2n1,TGI,OVCAR-8 ovarian,> 100 µM
same,TGI,OVCAR-5 ovarian,> 100 µM
same,TGI,MOLT-4 leukemia,> 100 µM
same,TGI,A549 NSCLC,> 100 µM
same,TGI,A498 renal,66.8 µM
same,TGI,U251 CNS,> 75.4 µM
same,TGI,HOP-62 NSCLC,59.7 µM
same,TGI,DU-145 prostate,> 100 µM
same,TGI,NCI/ADR-RES ovarian,> 100 µM
same,TGI,MALME-3M melanoma,> 100 µM
same,TGI,SW-620 colon,> 100 µM
same,TGI,OVCAR-3 ovarian,> 100 µM
same,TGI,K-562 leukemia,> 100 µM
same,TGI,SK-MEL-5 melanoma,> 100 µM
same,TGI,SF-539 CNS,> 71.4 µM
same,TGI,PC-3 prostate,> 100 µM
same,TGI,HS 578T breast,> 88.1 µM
same,TGI,LOX IMVI melanoma,> 100 µM
same,TGI,MDA-N,> 100 µM
same,TGI,SK-MEL-28 melanoma,> 100 µM
same,TGI,HL-60(TB) leukemia,> 100 µM
same,TGI,NCI-H522 lung,> 100 µM
same,TGI,SF-268 CNS,> 100 µM
same,TGI,HCT-116 colon,> 100 µM
same,TGI,HCT-15 colon,> 100 µM
same,TGI,M14 melanoma,> 100 µM
same,TGI,SNB-75 CNS,> 82.4 µM
same,TGI,COLO 205 colon,> 100 µM
same,TGI,NCI-H460 lung,> 100 µM
same,TGI,SK-OV-3 ovarian,> 73.4 µM
same,TGI,NCI-H23 lung,> 100 µM
same,TGI,T-47D breast,> 100 µM
same,TGI,UACC-257 melanoma,> 100 µM
same,TGI,OVCAR-4 ovarian,> 100 µM
same,TGI,BT-549 breast,> 100 µM
same,TGI,HT29 colon,> 100 µM
same,TGI,UACC-62 melanoma,> 100 µM
same,TGI,UO-31 renal,> 100 µM
same,TGI,786-0 renal,> 93 µM
same,TGI,MCF7 breast,> 100 µM
same,TGI,CAKI-1 renal,> 100 µM
same,TGI,ACHN renal,> 100 µM
same,TGI,IGROV1 ovarian,> 100 µM
same,TGI,SN12C renal,> 100 µM
same,TGI,HCC-2998 colon,> 100 µM
same,TGI,MDA-MB-435,> 100 µM
same,TGI,MDA-MB-231 breast,> 100 µM
same,TGI,SNB-19 CNS,> 76.4 µM
same,TGI,EKVX NSCLC,> 92.4 µM
same,TGI,SK-MEL-2 melanoma,> 100 µM
same,TGI,HOP-92 NSCLC,> 86.4 µM
same,TGI,SR leukemia,> 100 µM
same,TGI,CCRF-CEM leukemia,> 100 µM
same,TGI,NCI-H226 lung,> 100 µM
same,TGI,RXF 393 renal,51.5 µM
same,TGI,KM12 colon,> 100 µM
same,TGI,SF-295 CNS,98.6 µM
same,TGI,RPMI-8226 leukemia,> 100 µM
same,TGI,TK-10 renal,> 82 µM
